In the supplement of paper PMC5662764:
± gives the standard deviation of the averaged measurements.

Key:
Assay in all cases: normalised growth rate inhibition (GR value) relative to DMSO control (GR (1 = untreated growth, 0 = cytostasis, <0 = cytotoxic)); higher = less growth inhibition
Conditions in all cases: 72 h
MCF7 = test system: MCF7
Procedure: (§1)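 Breast cancer cell lines (BT-20, Hs 578T, MCF 10A, MCF7, MDA-MB-231, SK-BR-3) were plated in 384-well plates and treated 24 h later with drugs at six concentrations (0.04-10 µM). Viable cells were counted by Hoechst/dead-cell-stain imaging at 0 and 72 h. Counts were normalised to DMSO controls on the same plate to give the relative cell count and the growth-rate inhibition (GR) value; technical plate triplicates were averaged for each biological replicate.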

MCF10A = test system: MCF10A
Procedure: as §1

SKBR3 = test system: SKBR3
Procedure: as §1

BT20 = test system: BT20
Procedure: as §1

MDAMB231 = test system: MDAMB231
Procedure: as §1

HS578T = test system: HS578T
Procedure: as §1

| SMILES | normalised growth rate inhibition (MCF7; 0.04 µM) | normalised growth rate inhibition (MCF7; 0.12 µM) | normalised growth rate inhibition (MCF7; 0.37 µM) | normalised growth rate inhibition (MCF7; 1.11 µM) | normalised growth rate inhibition (MCF7; 3.33 µM) | normalised growth rate inhibition (MCF7; 10 µM) | normalised growth rate inhibition (MCF10A; 0.04 µM) | normalised growth rate inhibition (MCF10A; 0.12 µM) | normalised growth rate inhibition (MCF10A; 0.37 µM) | normalised growth rate inhibition (MCF10A; 1.11 µM) | normalised growth rate inhibition (MCF10A; 3.33 µM) | normalised growth rate inhibition (MCF10A; 10 µM) | normalised growth rate inhibition (SKBR3; 0.04 µM) | normalised growth rate inhibition (SKBR3; 0.12 µM) | normalised growth rate inhibition (SKBR3; 0.37 µM) | normalised growth rate inhibition (SKBR3; 1.11 µM) | normalised growth rate inhibition (SKBR3; 3.33 µM) | normalised growth rate inhibition (SKBR3; 10 µM) | normalised growth rate inhibition (BT20; 0.04 µM) | normalised growth rate inhibition (BT20; 0.12 µM) | normalised growth rate inhibition (BT20; 0.37 µM) | normalised growth rate inhibition (BT20; 1.11 µM) | normalised growth rate inhibition (BT20; 3.33 µM) | normalised growth rate inhibition (BT20; 10 µM) | normalised growth rate inhibition (MDAMB231; 0.04 µM) | normalised growth rate inhibition (MDAMB231; 0.12 µM) | normalised growth rate inhibition (MDAMB231; 0.37 µM) | normalised growth rate inhibition (MDAMB231; 1.11 µM) | normalised growth rate inhibition (MDAMB231; 3.33 µM) | normalised growth rate inhibition (MDAMB231; 10 µM) | normalised growth rate inhibition (HS578T; 0.04 µM) | normalised growth rate inhibition (HS578T; 0.12 µM) | normalised growth rate inhibition (HS578T; 0.37 µM) | normalised growth rate inhibition (HS578T; 1.11 µM) | normalised growth rate inhibition (HS578T; 3.33 µM) | normalised growth rate inhibition (HS578T; 10 µM) |
| --- | --- | --- | --- | --- | --- | --- | --- | --- | --- | --- | --- | --- | --- | --- | --- | --- | --- | --- | --- | --- | --- | --- | --- | --- | --- | --- | --- | --- | --- | --- | --- | --- | --- | --- | --- | --- |
| Cc1cnc(-c2cnc(NCCNc3ccc(C#N)cn3)nc2-c2ccc(Cl)cc2Cl)[nH]1 | 0.844 ± 0.082 | 0.786 ± 0.085 | 0.776 ± 0.095 | 0.586 ± 0.16 | 0.585 ± 0.1 | 0.222 ± 0.061 | 1.01 ± 0.032 | 1.01 ± 0.041 | 0.997 ± 0.07 | 0.952 ± 0.12 | 0.9 ± 0.12 | 0.799 ± 0.13 | 0.731 ± 0.12 | 0.725 ± 0.17 | 0.786 ± 0.16 | 0.749 ± 0.17 | 0.753 ± 0.17 | 0.465 ± 0.2 | 0.915 ± 0.11 | 0.932 ± 0.082 | 0.959 ± 0.087 | 1 ± 0.093 | 1.01 ± 0.069 | 0.875 ± 0.16 | 0.895 ± 0.041 | 0.823 ± 0.039 | 0.831 ± 0.021 | 0.827 ± 0.061 | 0.831 ± 0.024 | 0.762 ± 0.035 | 0.97 ± 0.014 | 0.9636 ± 0.0048 | 0.962 ± 0.018 | 0.911 ± 0.059 | 0.907 ± 0.018 | 0.525 ± 0.14 |
| OCCCNc1cc(-c2ccnc(Nc3cccc(Cl)c3)n2)ccn1 | 0.312 ± 0.68 | -0.264 ± 0.073 | -0.315 ± 0.074 | -0.332 ± 0.09 | -0.363 ± 0.09 | -0.429 ± 0.097 | 0.263 ± 0.55 | -0.205 ± 0.21 | -0.228 ± 0.22 | -0.24 ± 0.21 | -0.242 ± 0.21 | -0.231 ± 0.16 | 0.398 ± 0.76 | 0.11 ± 0.49 | -0.227 ± 0.18 | -0.278 ± 0.16 | -0.344 ± 0.15 | -0.414 ± 0.18 | 0.32 ± 0.6 | -0.203 ± 0.17 | -0.291 ± 0.18 | -0.323 ± 0.18 | -0.37 ± 0.19 | -0.43 ± 0.17 | 0.257 ± 0.49 | -0.139 ± 0.17 | -0.226 ± 0.15 | -0.295 ± 0.15 | -0.318 ± 0.15 | -0.319 ± 0.13 | 0.343 ± 0.56 | -0.0634 ± 0.17 | -0.144 ± 0.099 | -0.162 ± 0.09 | -0.188 ± 0.14 | -0.228 ± 0.13 |
| O=c1[nH]c2ccccc2n1C1CCN(Cc2ccc(-c3[nH]c4cc5ncnc5cc4nc3-c3ccccc3)cc2)CC1 [AKT-inhibitor-1-2] | 0.749 ± 0.023 | 0.741 ± 0.034 | 0.701 ± 0.1 | 0.471 ± 0.066 | 0.436 ± 0.11 | -0.0151 ± 0.17 | 0.994 ± 0.01 | 0.979 ± 0.01 | 0.9721 ± 0.0092 | 0.922 ± 0.048 | 0.945 ± 0.047 | 0.605 ± 0.15 | 0.675 ± 0.14 | 0.759 ± 0.051 | 0.766 ± 0.021 | 0.587 ± 0.091 | 0.599 ± 0.027 | 0.299 ± 0.043 | 0.831 ± 0.027 | 0.851 ± 0.026 | 0.921 ± 0.023 | 0.849 ± 0.015 | 0.872 ± 0.026 | 0.291 ± 0.052 | 0.874 ± 0.091 | 0.889 ± 0.086 | 0.918 ± 0.046 | 0.835 ± 0.083 | 0.888 ± 0.023 | 0.56 ± 0.11 | 0.9753 ± 0.0043 | 0.9556 ± 0.0094 | 0.933 ± 0.0086 | 0.857 ± 0.029 | 0.875 ± 0.024 | 0.388 ± 0.099 |
| O=C(NC1CCNCC1)c1n[nH]cc1NC(=O)c1c(Cl)cccc1Cl [AT-7519] | 0.69 ± 0.41 | 0.0423 ± 0.33 | -0.267 ± 0.063 | -0.302 ± 0.099 | -0.33 ± 0.14 | -0.404 ± 0.13 | 0.969 ± 0.028 | 0.88 ± 0.071 | 0.222 ± 0.39 | -0.156 ± 0.23 | -0.256 ± 0.28 | -0.296 ± 0.25 | 0.717 ± 0.24 | 0.14 ± 0.11 | -0.104 ± 0.074 | -0.284 ± 0.15 | -0.41 ± 0.18 | -0.523 ± 0.16 | 0.891 ± 0.088 | 0.695 ± 0.31 | 0.207 ± 0.43 | -0.207 ± 0.12 | -0.361 ± 0.21 | -0.422 ± 0.18 | 0.732 ± 0.19 | 0.291 ± 0.38 | -0.171 ± 0.22 | -0.291 ± 0.22 | -0.355 ± 0.2 | -0.388 ± 0.19 | 0.899 ± 0.1 | 0.564 ± 0.38 | -0.102 ± 0.11 | -0.14 ± 0.099 | -0.242 ± 0.12 | -0.295 ± 0.11 |
